How the values were obtained:
Carboplatin = compound: C1CC(C1)(C(=O)[O-])C(=O)[O-].N.N.[Pt+2] [Carboplatin]; details: max 10 µM
Procedure, shortened: (§1)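 Cancer cell lines were seeded in 1536-well plates in 7.5 μl DMEM/F12 or RPMI with 10% FBS, held 24 hours at 37°C and 5% CO2, then dosed for 72 hours (final DMSO typically 0.2%). Viability was read by CellTiter-Glo 2.0 luminescence and scaled between blank-well and DMSO-well means. The single-agent IC50 comes from dose responses fitted to a two-parameter logistic curve with a non-linear mixed effects model.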

AZD5363 = compound: C1CN(CCC1(C(=O)N[C@@H](CCO)C2=CC=C(C=C2)Cl)N)C3=NC=NC4=C3C=CN4 [AZD5363]; details: max 10 µM
Procedure, shortened: as §1

AZD1775 = compound: C=CCn1c(=O)c2cnc(Nc3ccc(N4CCN(C)CC4)cc3)nc2n1-c1cccc(C(C)(C)O)n1 [AZD1775]; details: max 3 µM
Procedure, shortened: as §1

Trametinib = compound: CC(=O)Nc1cccc(-n2c(=O)n(C3CC3)c(=O)c3c(Nc4ccc(I)cc4F)n(C)c(=O)c(C)c32)c1 [Trametinib]; details: max 1 µM
Procedure, shortened: as §1

Paclitaxel = compound: CC(=O)O[C@H]1C(=O)[C@@]2(C)[C@H]([C@H](OC(=O)c3ccccc3)[C@]3(O)C[C@H](OC(=O)[C@H](O)[C@@H](NC(=O)c4ccccc4)c4ccccc4)C(C)=C1C3(C)C)[C@]1(OC(C)=O)CO[C@@H]1C[C@@H]2O [Paclitaxel]; details: max 3 µM
Procedure, shortened: as §1

Palbociclib = compound: CC(=O)c1c(C)c2cnc(Nc3ccc(N4CCNCC4)cn3)nc2n(C2CCCC2)c1=O [Palbociclib]; details: max 10 µM
Procedure, shortened: as §1

AZD1390 = compound: CC(C)n1c(=O)n(C)c2cnc3cc(F)c(-c4ccc(OCCCN5CCCCC5)nc4)cc3c21 [AZD1390]; details: max 0.3 µM
Procedure, shortened: as §1

Venetoclax = compound: CC1(C)CCC(CN2CCN(c3ccc(C(=O)NS(=O)(=O)c4ccc(NCC5CCOCC5)c([N+](=O)[O-])c4)c(Oc4cnc5[nH]ccc5c4)c3)CC2)=C(c2ccc(Cl)cc2)C1 [Venetoclax]; details: max 1 µM
Procedure, shortened: as §1

Dasatinib = compound: CC1=C(C(=CC=C1)Cl)NC(=O)C2=CN=C(S2)NC3=CC(=NC(=N3)C)N4CCN(CC4)CCO [Dasatinib]; details: max 2 µM
Procedure, shortened: as §1

SG3199 = compound: CC1=CN2[C@@H](C1)C=NC3=CC(=C(C=C3C2=O)OC)OCCCCCOC4=C(C=C5C(=C4)N=C[C@@H]6CC(=CN6C5=O)C)OC [SG3199]; details: max 0.001 µM
Procedure, shortened: as §1

AZD2811 = compound: CCN(CCO)CCCOc1ccc2c(Nc3cc(CC(=O)Nc4cccc(F)c4)[nH]n3)ncnc2c1 [AZD2811]; details: max 1 µM
Procedure, shortened: as §1

SN-38 = compound: CCc1c2c(nc3ccc(O)cc13)-c1cc3c(c(=O)n1C2)COC(=O)[C@]3(O)CC [SN-38]; details: max 0.3 µM
Procedure, shortened: as §1

AZD0156 = compound: CN(C)CCCOc1ccc(-c2ccc3ncc4c(c3c2)n(C2CCOCC2)c(=O)n4C)cn1 [AZD0156]; details: max 3 µM
Procedure, shortened: as §1

AZD4320 = compound: CN(CC[C@H](CSC1=CC=CC=C1)NC2=C(C=C(C=C2)S(=O)(=O)NC(=O)C3=CC=C(C=C3)N4CCC(CC4)[C@H](C5=CC=CC=C5C6=CC=C(C=C6)Cl)O)S(=O)(=O)C(F)(F)F)CCO [AZD4320]; details: max 1 µM
Procedure, shortened: as §1

Alisertib = compound: COc1cc(Nc2ncc3c(n2)-c2ccc(Cl)cc2C(c2c(F)cccc2OC)=NC3)ccc1C(=O)O [Alisertib]; details: max 10 µM
Procedure, shortened: as §1

Etoposide = compound: COc1cc([C@@H]2c3cc4c(cc3[C@@H](O[C@@H]3O[C@@H]5CO[C@@H](C)O[C@H]5[C@H](O)[C@H]3O)[C@H]3COC(=O)[C@H]23)OCO4)cc(OC)c1O [Etoposide]; details: max 10 µM
Procedure, shortened: as §1

Gefitinib = compound: COc1cc2ncnc(Nc3ccc(F)c(Cl)c3)c2cc1OCCCN1CCOCC1 [Gefitinib]; details: max 10 µM
Procedure, shortened: as §1

Prexasertib = compound: COc1cccc(OCCCN)c1-c1cc(Nc2cnc(C#N)cn2)n[nH]1 [Prexasertib]; details: max 1 µM
Procedure, shortened: as §1

Doxorubicin = compound: COc1cccc2c1C(=O)c1c(O)c3c(c(O)c1C2=O)C[C@@](O)(C(=O)CO)C[C@@H]3O[C@H]1C[C@H](N)[C@H](O)[C@H](C)O1 [Doxorubicin]; details: max 1 µM
Procedure, shortened: as §1

AZD5153 = compound: COc1nnc2ccc(N3CCC(c4ccc(OCCN5CCN(C)C(=O)[C@H]5C)cc4)CC3)nn12 [AZD5153]; details: max 1 µM
Procedure, shortened: as §1

Lapatinib = compound: CS(=O)(=O)CCNCc1ccc(-c2ccc3ncnc(Nc4ccc(OCc5cccc(F)c5)c(Cl)c4)c3c2)o1 [Lapatinib]; details: max 10 µM
Procedure, shortened: as §1

AZD8186 = compound: C[C@@H](Nc1cc(F)cc(F)c1)c1cc(C(=O)N(C)C)cc2c(=O)cc(N3CCOCC3)oc12 [AZD8186]; details: max 10 µM
Procedure, shortened: as §1

Crizotinib = compound: C[C@@H](Oc1cc(-c2cnn(C3CCNCC3)c2)cnc1N)c1c(Cl)ccc(F)c1Cl [Crizotinib]; details: max 10 µM
Procedure, shortened: as §1

Savolitinib = compound: C[C@@H](c1ccc2nccn2c1)n1nnc2ncc(-c3cnn(C)c3)nc21 [Savolitinib]; details: max 1 µM
Procedure, shortened: as §1

AZD6738 = compound: C[C@@H]1COCCN1C2=NC(=NC(=C2)C3(CC3)[S@](=N)(=O)C)C4=C5C=CNC5=NC=C4 [AZD6738]; details: max 10 µM
Procedure, shortened: as §1

AZD5991 = compound: Cc1c2c(nn1C)CSCc1cc(n(C)n1)CSc1cc(c3ccccc3c1)OCCCc1c(C(=O)O)n(C)c3c-2c(Cl)ccc13 [AZD5991]; details: max 1 µM
Procedure, shortened: as §1

AZD7648 = compound: Cc1cc2ncnn2cc1Nc1ncc2c(n1)n(C1CCOCC1)c(=O)n2C [AZD7648]; details: max 10 µM
Procedure, shortened: as §1

Taselisib = compound: Cc1nc(-c2cn3c(n2)-c2ccc(-c4cnn(C(C)(C)C(N)=O)c4)cc2OCC3)n(C(C)C)n1 [Taselisib]; details: max 10 µM
Procedure, shortened: as §1

Selumetinib = compound: Cn1cnc2c(F)c(Nc3ccc(Br)cc3Cl)c(C(=O)NOCCO)cc21 [Selumetinib]; details: max 10 µM
Procedure, shortened: as §1

SRA737 = compound: N#Cc1cnc(Nc2cc(NC[C@H]3CNCCO3)c(C(F)(F)F)cn2)cn1 [SRA737]; details: max 10 µM
Procedure, shortened: as §1

MK-2206 = compound: NC1(c2ccc(-c3nc4ccn5c(=O)[nH]nc5c4cc3-c3ccccc3)cc2)CCC1 [MK-2206]; details: max 10 µM
Procedure, shortened: as §1

Gemcitabine = compound: Nc1ccn([C@@H]2O[C@H](CO)[C@@H](O)C2(F)F)c(=O)n1 [Gemcitabine]; details: max 0.3 µM
Procedure, shortened: as §1

[1] = compound: O=C(Nc1ccc2[nH]nc(-c3ccncc3)c2c1)[C@@H]1CCN(CC(=O)N2CCN(c3ccc(-c4ncccn4)cc3)CC2)C1; details: max 5 µM
Procedure, shortened: as §1

Olaparib = compound: O=C(c1cc(Cc2n[nH]c(=O)c3ccccc23)ccc1F)N1CCN(C(=O)C2CC2)CC1 [Olaparib]; details: max 10 µM
Procedure, shortened: as §1

5-Fluorouracil = compound: O=c1[nH]cc(F)c(=O)[nH]1 [5-Fluorouracil]; details: max 20 µM
Procedure, shortened: as §1

| Cell Line | IC50, cell viability 72 h (Carboplatin) | IC50, cell viability 72 h (AZD5363) | IC50, cell viability 72 h (AZD1775) | IC50, cell viability 72 h (Trametinib) | IC50, cell viability 72 h (Paclitaxel) | IC50, cell viability 72 h (Palbociclib) | IC50, cell viability 72 h (AZD1390) | IC50, cell viability 72 h (Venetoclax) | IC50, cell viability 72 h (Dasatinib) | IC50, cell viability 72 h (SG3199) | IC50, cell viability 72 h (AZD2811) | IC50, cell viability 72 h (SN-38) | IC50, cell viability 72 h (AZD0156) | IC50, cell viability 72 h (AZD4320) | IC50, cell viability 72 h (Alisertib) | IC50, cell viability 72 h (Etoposide) | IC50, cell viability 72 h (Gefitinib) | IC50, cell viability 72 h (Prexasertib) | IC50, cell viability 72 h (Doxorubicin) | IC50, cell viability 72 h (AZD5153) | IC50, cell viability 72 h (Lapatinib) | IC50, cell viability 72 h (AZD8186) | IC50, cell viability 72 h (Crizotinib) | IC50, cell viability 72 h (Savolitinib) | IC50, cell viability 72 h (AZD6738) | IC50, cell viability 72 h (AZD5991) | IC50, cell viability 72 h (AZD7648) | IC50, cell viability 72 h (Taselisib) | IC50, cell viability 72 h (Selumetinib) | IC50, cell viability 72 h (SRA737) | IC50, cell viability 72 h (MK-2206) | IC50, cell viability 72 h (Gemcitabine) | IC50, cell viability 72 h [1] | IC50, cell viability 72 h (Olaparib) | IC50, cell viability 72 h (5-Fluorouracil) |
| --- | --- | --- | --- | --- | --- | --- | --- | --- | --- | --- | --- | --- | --- | --- | --- | --- | --- | --- | --- | --- | --- | --- | --- | --- | --- | --- | --- | --- | --- | --- | --- | --- | --- | --- | --- |
| NAMALWA (Burkitt's Lymphoma) | > 10000 nM | 9010 nM | 300 nM | > 1000 nM | 4.84 nM | 9880 nM | > 300 nM | > 1000 nM | > 2000 nM | > 1 nM | > 1000 nM | 2.63 nM | > 3000 nM | > 1000 nM | 689 nM | 272 nM | > 10000 nM | 10.5 nM | 41.4 nM | 43.1 nM | > 10000 nM | 7520 nM | 2320 nM | > 1000 nM | 1140 nM | 61.1 nM | > 10000 nM | 2020 nM | > 10000 nM | 1670 nM | 8200 nM | 6.04 nM | > 5000 nM | > 10000 nM | 14500 nM |
| NCI-H226 (Mesothelioma) | > 10000 nM | > 10000 nM | > 3000 nM | > 1000 nM | > 3000 nM | > 10000 nM | > 300 nM | > 1000 nM | > 2000 nM | > 1 nM | > 1000 nM | > 300 nM | > 3000 nM | > 1000 nM | > 10000 nM | > 10000 nM | > 10000 nM | > 1000 nM | > 1000 nM | > 1000 nM | > 10000 nM | > 10000 nM | > 10000 nM | > 1000 nM | > 10000 nM | > 1000 nM | > 10000 nM | > 10000 nM | > 10000 nM | > 10000 nM | > 10000 nM | > 300 nM | > 5000 nM | > 10000 nM | > 20000 nM |
| NCI-H3118 (Head and Neck Carcinoma) | > 10000 nM | > 10000 nM | 191 nM | 120 nM | 15 nM | > 10000 nM | > 300 nM | > 1000 nM | 309 nM | > 1 nM | > 1000 nM | 277 nM | > 3000 nM | > 1000 nM | > 10000 nM | 5670 nM | 1970 nM | 39.3 nM | > 1000 nM | 684 nM | 4490 nM | > 10000 nM | > 10000 nM | > 1000 nM | > 10000 nM | > 1000 nM | > 10000 nM | 1060 nM | 3090 nM | > 10000 nM | > 10000 nM | 64.1 nM | 912 nM | > 10000 nM | > 20000 nM |
| RCC-JW (Kidney Carcinoma) | > 10000 nM | > 10000 nM | 1600 nM | > 1000 nM | 109 nM | > 10000 nM | > 300 nM | > 1000 nM | 85.1 nM | > 1 nM | > 1000 nM | 157 nM | > 3000 nM | 895 nM | > 10000 nM | > 10000 nM | > 10000 nM | > 1000 nM | > 1000 nM | > 1000 nM | 7530 nM | 5130 nM | > 10000 nM | > 1000 nM | > 10000 nM | > 1000 nM | > 10000 nM | > 10000 nM | > 10000 nM | > 10000 nM | > 10000 nM | 61.7 nM | > 5000 nM | > 10000 nM | > 20000 nM |
| SCC-4 (Oral Cavity Carcinoma) | > 10000 nM | > 10000 nM | > 3000 nM | > 1000 nM | 11.5 nM | > 10000 nM | > 300 nM | > 1000 nM | > 2000 nM | > 1 nM | > 1000 nM | 53 nM | > 3000 nM | > 1000 nM | 9220 nM | > 10000 nM | > 10000 nM | 154 nM | > 1000 nM | > 1000 nM | > 10000 nM | > 10000 nM | > 10000 nM | > 1000 nM | 9010 nM | > 1000 nM | > 10000 nM | 1940 nM | > 10000 nM | > 10000 nM | > 10000 nM | 272 nM | > 5000 nM | > 10000 nM | > 20000 nM |
